Reference: US11566007B2, “Ras inhibitors” (Revolution Medicines, Inc., priority 2019, dated 2023)
“And” between values parts separate entries of the source, which are not always exact repeats. Equal values may be shown once. Read-outs that look alike come from different tables or passages of the source.

What was measured:
[1] = target: KRAS G13D (Homo sapiens (Human), UniProt P01116+P62937, G13D); assay: Ras-Raf (BRAF RBD) disruption / FRET / MOA assay, KRAS G13D; assay type: biochemical; settings: read-out: IC50* KRAS G13D FRET data
Sequence of KRAS G13D (P01116-2 other isoform, or with tags, fused parts or gaps G13D): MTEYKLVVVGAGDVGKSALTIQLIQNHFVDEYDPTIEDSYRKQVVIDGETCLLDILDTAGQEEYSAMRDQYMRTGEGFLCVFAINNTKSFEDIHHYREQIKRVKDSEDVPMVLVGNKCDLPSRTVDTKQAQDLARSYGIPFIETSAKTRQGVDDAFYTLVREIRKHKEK
Sequence of KRAS G13D (P62937 whole entry): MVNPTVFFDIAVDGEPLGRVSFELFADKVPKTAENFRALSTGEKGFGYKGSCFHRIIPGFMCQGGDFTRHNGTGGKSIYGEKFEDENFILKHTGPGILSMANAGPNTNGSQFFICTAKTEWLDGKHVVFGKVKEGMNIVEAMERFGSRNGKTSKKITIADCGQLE
How it was run: (§1)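 Ternary complex formation (Ras–compound–cyclophilin A) displacing BRAF RBD, monitored by TR-FRET. Three hours at 25° C with compound (top 30 μM final), then 1.5 h with the labelled antibodies. Lower ratio than DMSO indicates disruption; IC50 reported.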

[2] = target: KRAS G12V (Homo sapiens (Human), UniProt P01116+P62937, G12V); assay: Ras-Raf (BRAF RBD) disruption / FRET / MOA assay, KRAS G12V; assay type: biochemical; settings: read-out: IC50* KRAS G12V FRET data
Sequence of KRAS G12V (P01116-2 other isoform, or with tags, fused parts or gaps G12V): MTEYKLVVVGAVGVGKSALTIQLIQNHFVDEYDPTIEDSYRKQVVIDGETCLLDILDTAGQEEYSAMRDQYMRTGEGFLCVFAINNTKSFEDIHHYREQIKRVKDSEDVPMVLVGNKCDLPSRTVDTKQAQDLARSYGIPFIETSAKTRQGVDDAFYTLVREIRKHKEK
Sequence of KRAS G12V (P62937 whole entry): as the sequence (P62937 whole entry) above
How it was run: as §1

[3] = target: K-Ras G12C (Homo sapiens (Human), UniProt P01116+P62937, G12C); assay: Ras-Raf (BRAF RBD) disruption / FRET / MOA assay, KRAS G12C; assay type: biochemical; settings: KRAS G12C; Ras-Raf disruption/FRET/MOA assay; read-out: IC50* KRAS G12C FRET data
Sequence of K-Ras G12C (P01116-2 other isoform, or with tags, fused parts or gaps G12C): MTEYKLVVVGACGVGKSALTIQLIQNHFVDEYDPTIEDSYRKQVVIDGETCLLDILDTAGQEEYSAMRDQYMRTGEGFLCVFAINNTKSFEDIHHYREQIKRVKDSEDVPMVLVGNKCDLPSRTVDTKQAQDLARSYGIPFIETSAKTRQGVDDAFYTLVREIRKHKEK
Sequence of K-Ras G12C (P62937 whole entry): as the sequence (P62937 whole entry) above
How it was run: as §1

[4] = target: KRAS G12D (Homo sapiens (Human), UniProt P01116+P62937, G12D); assay: Ras-Raf (BRAF RBD) disruption / FRET / MOA assay, KRAS G12D; assay type: biochemical; settings: Ras-Raf disruption/FRET/MOA assay; class symbols; read-out: KRAS G12D FRET data IC50
Sequence of KRAS G12D (P01116-2 other isoform, or with tags, fused parts or gaps G12D): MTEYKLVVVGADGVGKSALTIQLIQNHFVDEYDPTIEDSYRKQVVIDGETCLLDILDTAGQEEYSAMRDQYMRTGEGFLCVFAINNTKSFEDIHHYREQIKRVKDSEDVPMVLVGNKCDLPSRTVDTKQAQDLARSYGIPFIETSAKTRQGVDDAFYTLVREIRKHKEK
Sequence of KRAS G12D (P62937 whole entry): as the sequence (P62937 whole entry) above
How it was run: as §1

[5] = target: NRAS G12C (Homo sapiens (Human), UniProt P01111+P62937, G12C); assay: Ras-Raf (BRAF RBD) disruption / FRET / MOA assay, NRAS G12C; assay type: biochemical; settings: read-out: IC50* NRAS G12C FRET data
Sequence of NRAS G12C (P01111 whole entry G12C): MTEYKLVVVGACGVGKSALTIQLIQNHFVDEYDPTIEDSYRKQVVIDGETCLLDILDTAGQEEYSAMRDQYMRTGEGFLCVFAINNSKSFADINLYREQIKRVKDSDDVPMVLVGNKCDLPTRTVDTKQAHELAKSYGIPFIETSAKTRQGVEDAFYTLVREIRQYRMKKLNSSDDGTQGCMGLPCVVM
Sequence of NRAS G12C (P62937 whole entry): as the sequence (P62937 whole entry) above
How it was run: as §1

[6] = test system: NCI-H358 (K-Ras G12C); assay: CellTiter-Glo cell viability assay, NCI-H358; assay type: cell-based, human; settings: NCI-H358, 5-day treatment, class symbols, read-out: Additional H358 Cell Viability assay data (K-Ras G12C, IC50)
How it was run: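 Four-parameter logistic fits were applied to luminescence data normalized against DMSO-treated wells. Readings were taken on day 5 following direct compound addition, after roughly 30 minutes at room temperature.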

[7] = test system: NCI-H358 cells (K-Ras G12C); assay: Potency assay: pERK in NCI-H358 cells; assay type: cell-based, human; settings: Homo sapiens, NCI-H358; H358 KRAS G12C; read-out: pERK EC50
How it was run: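 Compounds are dosed as ten 3-fold dilutions from a 10 mM DMSO stock, in duplicate, and left on cells for 4 h at 37 °C, 5% CO2. Phospho-ERK1/2 is then quantified by AlphaLISA SureFire Ultra or In-Cell Western, and IC50 is derived from a 4-parameter sigmoid against log concentration.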

[8] = target: KRAS WT (Homo sapiens (Human), UniProt P01116+P62937); assay: Ras-Raf (BRAF RBD) disruption / FRET / MOA assay, KRAS WT; assay type: biochemical; settings: read-out: IC50* KRAS WT FRET data
Sequence of KRAS WT (P01116-2 other isoform, or with tags, fused parts or gaps): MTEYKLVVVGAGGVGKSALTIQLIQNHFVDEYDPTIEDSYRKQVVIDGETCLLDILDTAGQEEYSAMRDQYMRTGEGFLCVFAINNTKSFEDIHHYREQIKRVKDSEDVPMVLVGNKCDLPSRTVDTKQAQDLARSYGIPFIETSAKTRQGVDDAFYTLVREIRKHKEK
Sequence of KRAS WT (P62937 whole entry): as the sequence (P62937 whole entry) above
How it was run: as §1

[9] = target: K-Ras G13C (Homo sapiens (Human), UniProt P01116+P62937, G13C); assay: Ras-Raf (BRAF RBD) disruption / FRET / MOA assay, KRAS G13C; assay type: biochemical; settings: KRAS G13C; Ras-Raf disruption/FRET/MOA assay; read-out: IC50* KRAS G13C FRET data
Sequence of K-Ras G13C (P01116-2 other isoform, or with tags, fused parts or gaps G13C): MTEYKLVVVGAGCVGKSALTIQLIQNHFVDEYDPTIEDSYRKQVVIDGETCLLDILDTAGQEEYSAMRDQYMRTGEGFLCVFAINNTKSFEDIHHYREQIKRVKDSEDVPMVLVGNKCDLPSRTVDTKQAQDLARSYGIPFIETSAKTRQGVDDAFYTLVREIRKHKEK
Sequence of K-Ras G13C (P62937 whole entry): as the sequence (P62937 whole entry) above
How it was run: as §1

[10] = target: KRAS G12S (Homo sapiens (Human), UniProt P01116+P62937, G12S); assay: Ras-Raf (BRAF RBD) disruption / FRET / MOA assay, KRAS G12S; assay type: biochemical; settings: Ras-Raf disruption/FRET/MOA assay; class symbols; read-out: KRAS G12S FRET data IC50
Sequence of KRAS G12S (P01116-2 other isoform, or with tags, fused parts or gaps G12S): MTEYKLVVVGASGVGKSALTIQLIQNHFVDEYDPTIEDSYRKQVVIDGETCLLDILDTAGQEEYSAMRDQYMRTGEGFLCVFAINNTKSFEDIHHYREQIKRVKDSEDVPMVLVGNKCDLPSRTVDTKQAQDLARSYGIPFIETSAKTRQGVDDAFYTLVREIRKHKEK
Sequence of KRAS G12S (P62937 whole entry): as the sequence (P62937 whole entry) above
How it was run: as §1

IC50 [6] [nM]	SMILES	IC50 [1]	IC50 [2]	IC50 [3]	IC50 [4]	IC50 [5]	IC50 ([6]; Homo sapiens, NCI-H358, 120 h) [nM]	EC50 [7] [µM]	IC50 [8]	IC50 [9]	IC50 [10]
–	C=CS(=O)(=O)N1CC[C@H](C(=O)N(C)[C@H](C(=O)N[C@H]2Cc3cc(O)cc(c3)-c3ccc4c(c3)c(c(-c3cccnc3[C@H](C)OC)n4CC)CC(C)(C)COC(=O)[C@@H]3CCCN(N3)C2=O)C(C)C)C1 (atropisomer, axis not shown) [Example A132]	100 to 1000 nM and 1000 to 10000 nM	1000 to 10000 nM and 10 to 100 nM	10 to 100 nM and < 10 nM	1 to 10 µM and > 10 µM	10 to 100 nM and < 10 nM	10 to 100	< 5	1000 to 10000 nM and 10 to 100 nM	10 to 100 nM and < 10 nM	100 to 1000 nM and 1000 to 10000 nM
–	CCn1c(-c2cccnc2COC)c2c3cc(ccc31)-c1cc(O)cc(c1)C[C@H](NC(=O)[C@H](C(C)C)N(C)C(=O)[C@H]1CCN(C(=O)C#CCOC)C1)C(=O)N1CCC[C@H](N1)C(=O)OCC(C)(C)C2 (atropisomer, axis not shown) [Example A135]	1000 to 10000 nM and > 10000 nM	100 to 1000 nM and 1000 to 10000 nM	10 to 100 nM and < 10 nM	1 to 10 µM and > 10 µM	10 to 100 nM and < 10 nM	10 to 100	< 5	1000 to 10000 nM and > 10000 nM	10 to 100 nM and 100 to 1000 nM	100 to 1000 nM and 1000 to 10000 nM
–	CCn1c(-c2cccnc2COC)c2c3cc(ccc31)-c1cccc(c1)C[C@H](NC(=O)[C@H](C(C)C)N(C)C(=O)[C@H]1CCN(C(=O)C#CCN(C)C)C1)C(=O)N1CCC[C@H](N1)C(=O)OCC(C)(C)C2 (atropisomer, axis not shown) [Example A138]	1000 to 10000 nM	1000 to 10000 nM	10 to 100 nM	1 to 10 µM	10 to 100 nM	< 10	< 5	1000 to 10000 nM	100 to 1000 nM	> 10000 nM
< 10	CCn1c(-c2cncnc2C(C)C)c2c3cc(ccc31)-c1cc(O)cc(c1)C[C@H](NC(=O)[C@H](C(C)C)N(C)C(=O)[C@H]1CCN(C(=O)C#CCN(C)C)C1)C(=O)N1CCC[C@H](N1)C(=O)OCC(C)(C)C2 (atropisomer, axis not shown) [Example A155]	1000 to 10000 nM and 10 to 100 nM	100 to 1000 nM and 10 to 100 nM	10 to 100 nM	1 to 10 µM and 0.1 to 1 µM	10 to 100 nM and < 10 nM	10 to 100	< 5	1000 to 10000 nM and 10 to 100 nM	10 to 100 nM and < 10 nM	1000 to 10000 nM and 10 to 100 nM
–	CCn1c(-c2ccccc2CN(C)C)c2c3cc(ccc31)-c1cc(O)cc(c1)C[C@H](NC(=O)[C@H](C(C)C)N(C)C(=O)c1ncc(NC(=O)/C=C/CN(C)C)s1)C(=O)N1CCC[C@H](N1)C(=O)OCC(C)(C)C2 (atropisomer, axis not shown) [Example A163]	1000 to 10000 nM	> 10000 nM	1000 to 10000 nM	1 to 10 µM	1000 to 10000 nM	> 1000	< 5	1000 to 10000 nM	10 to 100 nM	> 10000 nM
–	CC#CC(=O)N1CC[C@H](C(=O)N(C)[C@H](C(=O)N[C@H]2Cc3cccc(c3)-c3ccc4c(c3)c(c(-c3cccnc3[C@H](C)OC)n4CC)CC(C)(C)COC(=O)[C@@H]3CCCN(N3)C2=O)C(C)C)C1 (atropisomer, axis not shown) [Example A173]	> 10000 nM	1000 to 10000 nM	100 to 1000 nM	> 10 µM	100 to 1000 nM	10 to 100	< 5	> 10000 nM	> 10000 nM	1000 to 10000 nM
< 10	CCn1c(-c2cncnc2[C@H](C)OC)c2c3cc(ccc31)-c1cc(O)cc(c1)C[C@H](NC(=O)[C@H](C(C)C)N(C)C(=O)[C@H]1CCN(C(=O)C#CCN3CCOCC3)C1)C(=O)N1CCC[C@H](N1)C(=O)OCC(C)(C)C2 (atropisomer, axis not shown) [Example A182]	100 to 1000 nM and 1000 to 10000 nM	100 to 1000 nM and 1000 to 10000 nM	10 to 100 nM and < 10 nM	1 to 10 µM and > 10 µM	10 to 100 nM and < 10 nM	10 to 100	< 5	100 to 1000 nM and 1000 to 10000 nM	10 to 100 nM and 1000 to 10000 nM	100 to 1000 nM and 1000 to 10000 nM
